Source: ChEMBL document CHEMBL5550189, “Discovery of GS-7682, a Novel 4'-Cyano-Modified C-Nucleoside Prodrug with Broad Activity against Pneumo- and Picornaviruses and Efficacy in RSV-Infected African Green Monkeys” (J Med Chem, 2024)

Experiments:
[1] = test system: Respiratory syncytial virus; assay: Antiviral activity against RSV A2 infected in Normal human bronchial epithelial cells incubated for 3 days by ONE-Glo luciferase assay; assay type: functional, organism-based; details: A2, Epithelial cell, 72 h
[2] = test system: Respiratory syncytial virus; assay: Antiviral activity against RSV A2 infected in human HEp-2 cells incubated for 4 days by Cell Titer Glo assay; assay type: functional, organism-based; details: A2, HEp-2, 96 h
[3] = Cytotoxicity against human Hep-2 cells incubated for 4 to 5 days by Cell Titer Glo assay; assay type: toxicity, cell-based; details: time 4-5 day
[4] = Cytotoxicity against human MT4 cells incubated for 5 days by Cell Titer Glo assay; assay type: toxicity, cell-based; details: time 5 day
[5] = Distribution coefficient, log D of compound measured after 30 mins by HPLC/UV analysis; assay type: physicochemical; details: octanol/water
[6] = Prodrug conversion in Normal human bronchial epithelial cells assessed as ((2R,3S,4R,5S)-5-(4-aminopyrrolo[2,1-f][1,2,4]triazin-7-yl)-2-cyano-3,4-dihydroxytetrahydrofuran-2-yl)methyl tetrahydrogen triphosphate formation measured per million cells at 10 uM incubated for 2 hrs by LC-MS/MS analysis; assay type: ADME, cell-based; details: epithelial cell
[7] = target: T1, DNA-directed RNA polymerase, mitochondrial (Homo sapiens, UniProt O00411); assay: Inhibition of recombinant human POLRMT assessed as single-nucleotide incorporation rate at 500 uM measured for 60 mins in presence of ATP by imaging analysis relative to control; parameters: scale not given: the % may be the effect or the level left
T1 sequence (O00411 whole entry): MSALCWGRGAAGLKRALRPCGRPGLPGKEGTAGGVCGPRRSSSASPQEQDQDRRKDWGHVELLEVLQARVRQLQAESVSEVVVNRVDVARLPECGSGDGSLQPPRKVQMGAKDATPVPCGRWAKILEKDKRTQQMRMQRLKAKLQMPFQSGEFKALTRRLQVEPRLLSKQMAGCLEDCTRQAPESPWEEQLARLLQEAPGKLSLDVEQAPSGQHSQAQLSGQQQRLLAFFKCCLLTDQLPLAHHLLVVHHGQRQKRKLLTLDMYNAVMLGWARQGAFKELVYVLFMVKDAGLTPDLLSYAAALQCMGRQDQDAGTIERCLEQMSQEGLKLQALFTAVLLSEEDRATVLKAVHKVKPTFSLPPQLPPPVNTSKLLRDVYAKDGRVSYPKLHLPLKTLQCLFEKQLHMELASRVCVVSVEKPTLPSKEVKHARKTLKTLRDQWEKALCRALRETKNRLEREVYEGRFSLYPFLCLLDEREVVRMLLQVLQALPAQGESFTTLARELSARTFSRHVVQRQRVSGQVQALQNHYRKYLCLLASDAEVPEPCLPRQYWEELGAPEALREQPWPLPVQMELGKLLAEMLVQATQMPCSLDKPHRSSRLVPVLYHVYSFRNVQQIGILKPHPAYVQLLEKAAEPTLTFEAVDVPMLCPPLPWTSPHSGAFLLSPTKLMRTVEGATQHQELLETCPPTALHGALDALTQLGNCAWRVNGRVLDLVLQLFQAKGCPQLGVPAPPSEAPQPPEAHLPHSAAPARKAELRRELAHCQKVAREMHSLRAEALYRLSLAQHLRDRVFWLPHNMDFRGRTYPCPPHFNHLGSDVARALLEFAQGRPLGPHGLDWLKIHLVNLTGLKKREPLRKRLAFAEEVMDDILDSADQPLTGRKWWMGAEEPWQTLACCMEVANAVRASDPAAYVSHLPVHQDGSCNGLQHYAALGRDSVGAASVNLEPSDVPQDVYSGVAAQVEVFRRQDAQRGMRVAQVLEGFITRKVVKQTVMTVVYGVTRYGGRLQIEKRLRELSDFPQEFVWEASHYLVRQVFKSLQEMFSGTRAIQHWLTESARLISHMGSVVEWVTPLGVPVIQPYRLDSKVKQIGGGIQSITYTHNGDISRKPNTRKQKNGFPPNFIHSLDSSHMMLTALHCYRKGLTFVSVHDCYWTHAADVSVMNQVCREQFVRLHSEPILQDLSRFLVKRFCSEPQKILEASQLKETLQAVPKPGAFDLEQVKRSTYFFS

[8] = Inhibition of RSV ribonucleoprotein complex in presence of [alpha-32P]ATP by Phosphor imaging analysis; parameters: species or system Respiratory syncytial virus
[9] = target: T1, DNA-directed RNA polymerase, mitochondrial; assay: Inhibition of recombinant human POLRMT by Phosphor imaging analysis
Homo sapiens [10] = organism: Homo sapiens; assay: Inhibition of recombinant human DNA Pol-gamma assessed as single-nucleotide incorporation rate at 50 uM measured for 60 mins in presence of dATP by imaging analysis relative to control; parameters: scale not given: the % may be the effect or the level left
Homo sapiens [11] = organism: Homo sapiens; assay: Inhibition of recombinant human DNA Pol-alpha assessed as single-nucleotide incorporation rate at 50 uM measured for 60 mins in presence of dATP by imaging analysis relative to control; parameters: scale not given: the % may be the effect or the level left
Human metapneumovirus = assay: Anti-viral activity against hMPV CAN99-81 (A1 genotype) infected in rhesus monkey LLC-MK2 cells incubated for 3 to 5 days; assay type: functional, organism-based
Influenza A virus = assay: Anti-viral activity against Influenza A (H1N1) infected in MDCK cells by MTS assay; assay type: functional, organism-based; details: H
enterovirus D68 = assay: Anti-viral activity against EV-D68 (18952) infected in human RD cells by MTS assay; assay type: functional, organism-based; details: Enterovirus D, 18952, RD
Enterovirus A71 = assay: Anti-viral activity against EV-71 (H) infected in human RD cells by MTS assay; assay type: functional, organism-based; details: Enterovirus A

Row | Compound | EC50 [1] [µM] | EC50 [2] [µM] | CC50 [3] [µM] | CC50 at 120 h [4] [µM] | logD at 0.5 h [5] | other results
1 | CC(C)C(=O)O[C@H]1[C@H](c2ccc3c(N)ncnn23)O[C@](C#N)(CO[P@@](=O)(N[C@@H](C)C(=O)OC2CCCCC2)Oc2ccccc2)[C@H]1OC(=O)C(C)C | 0.017 | 0.06 | 18.1 | 8.7 | 4 | Drug metabolism [6]: 170 pM
2 | C=C[C@]1(COP(=O)(O)OP(=O)(O)OP(=O)(O)O)O[C@@H](c2ccc3c(N)ncnn23)[C@H](O)[C@@H]1O | – | – | – | – | – | Activity [7]: 0.96%
3 | CCC(=O)O[C@H]1[C@H](c2ccc3c(N)ncnn23)O[C@](C#N)(CO[P@@](=O)(N[C@@H](C)C(=O)OC2CCCCC2)Oc2ccccc2)[C@H]1OC(=O)CC | 0.041 | 0.06 | 33.9 | 17.1 | 3.5 | –
4 | CC(C)OC(=O)[C@H](C)N[P@](=O)(OC[C@@]1(C#N)O[C@@H](c2ccc3c(N)ncnn23)[C@H](O)[C@@H]1O)Oc1ccccc1 | 0.933 | 0.391 | > 50 | > 57 | 1.3 | –
5 | CCOC(=O)[C@H](C)N[P@](=O)(OC[C@@]1(C#N)O[C@@H](c2ccc3c(N)ncnn23)[C@H](O)[C@@H]1O)Oc1ccccc1 | 0.932 | 0.095 | > 100 | 28.7 | 1.1 | –
6 | N#C[C@]1(CO)O[C@@H](c2ccc3c(N)ncnn23)[C@H](O)[C@@H]1O | 6.23 | 6.83 | > 50 | > 50 | – | –
7 | N#C[C@]1(CO)O[C@@H](c2ccc3c(N)ncnn23)[C@H](F)[C@@H]1O | 2.31 | – | > 100 | > 50 | – | –
8 | CCCOC(=O)[C@H](C)N[P@](=O)(OC[C@@]1(C#N)O[C@@H](c2ccc3c(N)ncnn23)[C@H](OC(=O)C(C)C)[C@@H]1OC(=O)C(C)C)Oc1ccccc1 | 0.046 | 0.036 | 15.7 | 4.92 | 3.3 | Drug metabolism [6]: 402 pM
9 | N#C[C@]1(COP(=O)(O)OP(=O)(O)OP(=O)(O)O)O[C@@H](c2ccc3c(N)ncnn23)[C@H](O)[C@@H]1O | – | – | – | – | – | IC50 [8]: 0.05 µM; Activity [7]: 0.8%; IC50 [9]: > 200 µM; Activity (Homo sapiens [10]): 0%; Activity (Homo sapiens [11]): 0%
10 | Nc1ncnn2c([C@@H]3O[C@@](CO)(CCl)[C@@H](O)[C@H]3O)ccc12 | > 25 | > 50 | > 38 | > 50 | – | –
11 | CCC(=O)O[C@H]1[C@H](c2ccc3c(N)ncnn23)O[C@](C#N)(CO[P@@](=O)(NC(C)C(=O)OC)Oc2ccccc2)[C@H]1OC(=O)CC (some centres undefined) | 0.019 | 0.092 | 30 | 3.33 | 2.2 | Drug metabolism [6]: 384 pM
12 | C[C@H](N[P@](=O)(OC[C@@]1(C#N)O[C@@H](c2ccc3c(N)ncnn23)[C@H](O)[C@@H]1O)Oc1ccccc1)C(=O)OC1CCOCC1 | > 4.3 | 1.49 | > 50 | > 57 | 1.3 | –
13 | CC(=O)O[C@H]1[C@H](c2ccc3c(N)ncnn23)O[C@](C#N)(CO[P@@](=O)(N[C@@H](C)C(=O)OC2CCCCC2)Oc2ccccc2)[C@H]1OC(C)=O | 0.023 | 0.206 | > 49 | 29.8 | 2.9 | Drug metabolism [6]: 40 pM
14 | CCCOC(=O)[C@H](C)N[P@](=O)(OC[C@@]1(C#N)O[C@@H](c2ccc3c(N)ncnn23)[C@H](OC(=O)CC)[C@@H]1OC(=O)CC)Oc1ccccc1 | 0.056 | 0.041 | 27.3 | 7.65 | 2.8 | Drug metabolism [6]: 165 pM
15 | N#C[C@]1(COP(=O)(O)OP(=O)(O)OP(=O)(O)O)O[C@@H](c2ccc3c(N)ncnn23)[C@H](F)[C@@H]1O | – | – | – | – | – | IC50 [8]: 0.086 µM; Activity [7]: 0.03%; IC50 [9]: 115 µM; Activity (Homo sapiens [10]): 2.3%; Activity (Homo sapiens [11]): 8.7%
16 | NC(=O)c1ncn([C@@H]2O[C@H](CO)[C@@H](O)[C@H]2O)n1 [RIBAVIRIN] | – | – | – | – | – | EC50 (Human metapneumovirus): 34.8 µM

Row | Compound | EC50 [1] [µM] | EC50 [2] [µM] | CC50 [3] [µM] | CC50 at 120 h [4] [µM] | logD at 0.5 h [5] | other results
17 | C[C@]1(COP(=O)(O)OP(=O)(O)OP(=O)(O)O)O[C@@H](c2ccc3c(N)ncnn23)[C@H](O)[C@@H]1O | – | – | – | – | – | Activity [7]: 3.2%
18 | NC(=O)c1nc(F)cnc1O [FAVIPIRAVIR] | – | – | – | – | – | EC50 (Influenza A virus): 5.87 µM
19 | CCCOC(=O)[C@H](C)N[P@](=O)(OC[C@@]1(C#N)O[C@@H](c2ccc3c(N)ncnn23)[C@H](O)[C@@H]1O)Oc1ccccc1 | 0.168 | 0.055 | > 50 | 10.3 | 1.2 | –
20 | CCC(CC)OC(=O)[C@H](C)NP(=O)(OC[C@@]1(C#N)O[C@@H](c2ccc3c(N)ncnn23)[C@H](O)[C@@H]1O)Oc1ccccc1 (some centres undefined) | 0.054 | 0.029 | > 93 | 40.1 | 2.1 | –
21 | Nc1ncnn2c([C@@H]3O[C@H](CO)[C@@H](O)[C@H]3O)ccc12 | – | – | 0.037 | < 0.01 | – | –
22 | C=C[C@]1(CO)O[C@@H](c2ccc3c(N)ncnn23)[C@H](O)[C@@H]1O | > 50 | > 50 | > 50 | > 50 | – | –
23 | CC(C)S(=O)(=O)n1c(N)nc2ccc(/C(=N/O)c3ccccc3)cc21 [ENVIROXIME] | – | – | – | – | – | EC50 (enterovirus D68): 0.22 µM; EC50 (Enterovirus A71): 0.02 µM
24 | C[C@]1(CO)O[C@@H](c2ccc3c(N)ncnn23)[C@H](O)[C@@H]1O | > 50 | 25.3 | > 50 | > 50 | – | –
25 | Nc1ncnn2c([C@@H]3O[C@](CCl)(COP(=O)(O)OP(=O)(O)OP(=O)(O)O)[C@@H](O)[C@H]3O)ccc12 | – | – | – | – | – | IC50 [8]: 1.1 µM; Activity [7]: 0.1%
26 | [N-]=[N+]=N[C@]1(CO)O[C@@H](c2ccc3c(N)ncnn23)[C@H](O)[C@@H]1O | 3.59 | 2.02 | > 50 | > 50 | – | –
27 | COC(=O)C(C)N[P@](=O)(OC[C@@]1(C#N)O[C@@H](c2ccc3c(N)ncnn23)[C@H](OC(C)=O)[C@@H]1OC(C)=O)Oc1ccccc1 (some centres undefined) | 0.051 | 0.127 | > 42 | 10.6 | 2 | –
28 | [N-]=[N+]=N[C@]1(COP(=O)(O)OP(=O)(O)OP(=O)(O)O)O[C@@H](c2ccc3c(N)ncnn23)[C@H](O)[C@@H]1O | – | – | – | – | – | IC50 [8]: 0.12 µM; Activity [7]: 132%; IC50 [9]: 1 µM; Activity (Homo sapiens [10]): 0.62%; Activity (Homo sapiens [11]): 0%
29 | C[C@H](N[P@@](=O)(OC[C@@]1(C#N)O[C@@H](c2ccc3c(N)ncnn23)[C@H](O)[C@@H]1O)Oc1ccccc1)C(=O)OC1CCCCC1 | 0.63 | 3.11 | > 50 | > 50 | – | –
30 | C[C@H](N[P@](=O)(OC[C@@]1(C#N)O[C@@H](c2ccc3c(N)ncnn23)[C@H](O)[C@@H]1O)Oc1ccccc1)C(=O)OC1CCCCC1 | 0.141 | 0.148 | > 100 | > 50 | 2.2 | Drug metabolism [6]: 13 pM
31 | COC(=O)[C@H](C)N[P@](=O)(OC[C@@]1(C#N)O[C@@H](c2ccc3c(N)ncnn23)[C@H](O)[C@@H]1O)Oc1ccccc1 | 0.295 | 0.122 | > 50 | > 38 | 1.1 | Drug metabolism [6]: 15 pM
